ChEMBL document CHEMBL1201862, “PubChem BioAssay data set” (2004)
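Dose response: 5 concentrations. Exposure: 48 h. Format: 96-well plates. Endpoint: linear interpolation; highest concentration if not reached. The concentration for 50% growth inhibition is given as GI50.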 The source made the active and inactive calls. No stated cut-off is given here; in the data, active = GI50 up to about 1.1 µM and inactive = higher.

Columns and labels:
Assay in all cases: growth of human tumour cells (NCI), 48 h
[1] = test system: HCT-116
[2] = test system: SNB-75
[3] = test system: SK-OV-3
[4] = test system: PC-3
[5] = test system: MCF7
[6] = test system: SN12C
[7] = test system: Hs-578T
[8] = test system: OVCAR-5
[9] = test system: NCI-H460
[10] = test system: SF-268
[11] = test system: SK-MEL-5
[12] = test system: M14
[13] = test system: HOP-92
[14] = test system: RXF 393
[15] = test system: U-251
[16] = test system: MDA-MB-435
[17] = test system: SR
[18] = test system: EKVX
[19] = test system: NCI-H522
[20] = test system: SF-539

Row | Compound | GI50 [1] | GI50 [2] | GI50 [3] | GI50 [4] | GI50 [5] | GI50 [6] | GI50 [7] | GI50 [8] | GI50 [9] | GI50 [10] | GI50 [11] | GI50 [12] | GI50 [13] | GI50 [14] | GI50 [15] | GI50 [16] | GI50 [17] | GI50 [18] | GI50 [19] | GI50 [20]
1 | O=C1C(c2c(O)[nH]c3ccc([N+](=O)[O-])cc23)=Nc2ccccc21 | > 100 µM (inactive) | 13.8 µM (inactive) | > 100 µM (inactive) | 83.6 µM (inactive) | 57.1 µM (inactive) | > 100 µM (inactive) | 56.9 µM (inactive) | > 100 µM (inactive) | > 100 µM (inactive) | > 100 µM (inactive) | > 100 µM (inactive) | > 100 µM (inactive) | > 100 µM (inactive) | 13 µM (inactive) | 21.2 µM (inactive) | > 100 µM (inactive) | 30.3 µM (inactive) | > 100 µM (inactive) | > 100 µM (inactive) | 
2 | NCCCNC1(c2cc3ccccc3s2)CCCCC1 | 2.06 µM (inactive) | 10.9 µM (inactive) | 13.5 µM (inactive) | 7.13 µM (inactive) | 3.69 µM (inactive) | 10.5 µM (inactive) | 11.9 µM (inactive) | 13 µM (inactive) | 1.94 µM (inactive) | 9.93 µM (inactive) | 1.82 µM (inactive) | 1.8 µM (inactive) | 11.6 µM (inactive) | 4.17 µM (inactive) | 2.93 µM (inactive) | 1.94 µM (inactive) | 1.77 µM (inactive) | 8.65 µM (inactive) | 3.21 µM (inactive) | 2.38 µM (inactive)
3 | CN(CCN1C(=O)c2cccc3cccc(c23)C1=O)CCN1C(=O)c2cccc3cccc(c23)C1=O | 5.98 µM (inactive) | 19.2 µM (inactive) | 4.29 µM (inactive) | > 100 µM (inactive) | 84.3 µM (inactive) | 76 µM (inactive) | 12 µM (inactive) | > 100 µM (inactive) | 16.3 µM (inactive) | 27.7 µM (inactive) | > 100 µM (inactive) | > 100 µM (inactive) |  | 23.3 µM (inactive) | 12.2 µM (inactive) | > 100 µM (inactive) | 3.37 µM (inactive) | > 100 µM (inactive) | 13.2 µM (inactive) | 32.7 µM (inactive)
4 | O=C(CCCN1CCC2(CC1)/C(=N/C1CCCCC1)NC(=O)N2c1ccccc1)c1ccc(F)cc1 | 21.3 µM (inactive) | 17.2 µM (inactive) |  | 21.6 µM (inactive) | 14.1 µM (inactive) | 18.4 µM (inactive) | 33.4 µM (inactive) | 20.9 µM (inactive) | 22.7 µM (inactive) | 19 µM (inactive) | 23.1 µM (inactive) | 17.6 µM (inactive) | 17.1 µM (inactive) | 39.5 µM (inactive) | 33.1 µM (inactive) | 20.1 µM (inactive) | 16.7 µM (inactive) | 29.8 µM (inactive) | 24.7 µM (inactive) | 18.8 µM (inactive)
5 | O=c1c2sc3ccccc3sc=2c(=O)c2c(Cl)c(Cl)c(Cl)c(Cl)c12 | > 100 µM (inactive) | > 100 µM (inactive) | > 100 µM (inactive) | > 100 µM (inactive) | > 100 µM (inactive) | > 100 µM (inactive) | 38.4 µM (inactive) | > 100 µM (inactive) | > 100 µM (inactive) | > 100 µM (inactive) | > 100 µM (inactive) | > 100 µM (inactive) |  | > 100 µM (inactive) | > 100 µM (inactive) | > 100 µM (inactive) | > 100 µM (inactive) | > 100 µM (inactive) | > 100 µM (inactive) | 
6 | COc1ccc(C(c2cc(OC)c(OC)c(OC)c2)N2C(=O)CCC2C(=O)O)cc1 (stereo unspecified) | 35.5 µM (inactive) | 59 µM (inactive) | 60.1 µM (inactive) | 46 µM (inactive) | 62.4 µM (inactive) | > 100 µM (inactive) | 62.1 µM (inactive) | 61.5 µM (inactive) | 38.8 µM (inactive) | > 100 µM (inactive) | 41.9 µM (inactive) | 38.3 µM (inactive) | > 100 µM (inactive) |  | 38.3 µM (inactive) | 21.8 µM (inactive) | 49.7 µM (inactive) | > 100 µM (inactive) | 52.1 µM (inactive) | 21.2 µM (inactive)
7 | O=C(O)CCC1(CCC(=O)O)CCCCCCCCC(CCC(=O)O)(CCC(=O)O)C(=O)C1=O | > 100 µM (inactive) | > 100 µM (inactive) | > 100 µM (inactive) | > 100 µM (inactive) | > 100 µM (inactive) | > 100 µM (inactive) | > 100 µM (inactive) | > 100 µM (inactive) | > 100 µM (inactive) | > 100 µM (inactive) |  | > 100 µM (inactive) | > 100 µM (inactive) |  | > 100 µM (inactive) | > 100 µM (inactive) | 84.9 µM (inactive) | > 100 µM (inactive) | > 100 µM (inactive) | > 100 µM (inactive)
8 | COc1ccc2nc3cc(Cl)ccc3c(NCCCNCc3cc(OC)c(OC)c(OC)c3)c2c1 | 1.24 µM (inactive) |  | 1.81 µM (inactive) | 1.4 µM (inactive) | 1.75 µM (inactive) | 1.53 µM (inactive) | 2.95 µM (inactive) | 1.69 µM (inactive) | 1.64 µM (inactive) | 1.67 µM (inactive) | 1.4 µM (inactive) | 1.65 µM (inactive) |  | 1.46 µM (inactive) | 1.76 µM (inactive) | 1.82 µM (inactive) | 1.2 µM (inactive) | 1.47 µM (inactive) | 1.5 µM (inactive) | 1.87 µM (inactive)
9 | CC(=O)OCC1OC(n2c3c(cc(C#N)c2=S)CCCCCC3)C(OC(C)=O)C(OC(C)=O)C1OC(C)=O (stereo unspecified) | 37.8 µM (inactive) | 27.2 µM (inactive) |  | > 100 µM (inactive) | > 100 µM (inactive) | > 100 µM (inactive) | 97.9 µM (inactive) | > 100 µM (inactive) | 42.2 µM (inactive) | > 100 µM (inactive) | 72.1 µM (inactive) | > 100 µM (inactive) | > 100 µM (inactive) | > 100 µM (inactive) | 91 µM (inactive) | > 100 µM (inactive) | 36.8 µM (inactive) |  | 76.4 µM (inactive) | > 100 µM (inactive)
10 | CC1C2CC(CC2N)C1(C)C (stereo unspecified) | > 100 µM (inactive) | > 100 µM (inactive) | > 100 µM (inactive) | > 100 µM (inactive) | > 100 µM (inactive) | > 100 µM (inactive) | > 100 µM (inactive) | > 100 µM (inactive) | > 100 µM (inactive) | > 100 µM (inactive) | > 100 µM (inactive) | > 100 µM (inactive) | > 100 µM (inactive) |  | > 100 µM (inactive) | > 100 µM (inactive) | > 100 µM (inactive) | > 100 µM (inactive) | > 100 µM (inactive) | > 100 µM (inactive)
11 | CCOC(=O)c1c(O)cn2c1[nH]c1cccc3cccc2c31 | > 100 µM (inactive) | 37.4 µM (inactive) | > 100 µM (inactive) | > 100 µM (inactive) | 49.2 µM (inactive) | > 100 µM (inactive) | > 100 µM (inactive) | > 100 µM (inactive) | 92.7 µM (inactive) | 63.7 µM (inactive) | > 100 µM (inactive) | > 100 µM (inactive) | 51.4 µM (inactive) | 41.5 µM (inactive) | 63.4 µM (inactive) | > 100 µM (inactive) | 50.5 µM (inactive) | > 100 µM (inactive) | 46.5 µM (inactive) | 
12 | Cc1ccccc1N(C)S(=O)(=O)c1ccccc1[N+](=O)[O-] | 41.1 µM (inactive) | 47.6 µM (inactive) | 53.6 µM (inactive) | 38.9 µM (inactive) | 42.5 µM (inactive) | > 100 µM (inactive) | 66.1 µM (inactive) | 66.7 µM (inactive) | 36.1 µM (inactive) | 40.7 µM (inactive) | 15.4 µM (inactive) | 20.8 µM (inactive) |  | 21.3 µM (inactive) | 36.3 µM (inactive) | 33.4 µM (inactive) | 36.6 µM (inactive) | 32.2 µM (inactive) | 36.1 µM (inactive) | 36.5 µM (inactive)
13 | O=C(N/N=C\c1cccc2ccccc12)Nc1cccc2ccccc12 | 13.9 µM (inactive) | 6.61 µM (inactive) |  | 26.9 µM (inactive) | 7.8 µM (inactive) | 41.9 µM (inactive) | 43 µM (inactive) | > 100 µM (inactive) | 5.43 µM (inactive) | 63.4 µM (inactive) | 13.1 µM (inactive) | 28.8 µM (inactive) |  | 14.1 µM (inactive) | 11.4 µM (inactive) | 3.95 µM (inactive) | 3.29 µM (inactive) | 84.7 µM (inactive) | 18.6 µM (inactive) | 10.7 µM (inactive)
14 | O=C(O)Cc1ccc2nc(COC(=O)c3ccccc3)sc2c1 | 83.8 µM (inactive) | > 100 µM (inactive) | > 100 µM (inactive) | > 100 µM (inactive) | > 100 µM (inactive) | > 100 µM (inactive) | > 100 µM (inactive) | > 100 µM (inactive) | > 100 µM (inactive) | > 100 µM (inactive) | > 100 µM (inactive) | > 100 µM (inactive) | > 100 µM (inactive) | > 100 µM (inactive) | > 100 µM (inactive) | > 100 µM (inactive) | > 100 µM (inactive) | > 100 µM (inactive) | > 100 µM (inactive) | 
15 | Cc1ccc2[nH]c3c(c2c1)C1CCC(C(C)(C)C)CC1C1C(=O)N(c2ccc(Oc4ccccc4)cc2)C(=O)C31 (stereo unspecified) | 18.5 µM (inactive) | 2.32 µM (inactive) | 17.7 µM (inactive) | 67.9 µM (inactive) | 56.9 µM (inactive) | 10.4 µM (inactive) | 2.81 µM (inactive) | 26.3 µM (inactive) | 16 µM (inactive) | 6.75 µM (inactive) | > 92.5 µM (inactive) | 48.8 µM (inactive) | 14.4 µM (inactive) | 7.55 µM (inactive) | 5.61 µM (inactive) | 58.6 µM (inactive) | 1.05 µM (active) | 27 µM (inactive) | 13.2 µM (inactive) | 
